Tests used:
[1] = tested on: rat hearts; assay: No-flow ischemia-reperfusion of hearts after 2 weeks of Se supplementation (Example 2); format: in vivo; conditions: 23 μM M40403 in perfusate with sodium selenite 50 μg/kg/day for 2 weeks; compared to M40403 without sodium selenite
Protocol: Hearts were isolated from rats and perfused in the Langendorff mode as previously described (Jain et al., Am J Physiol. 2001; 280:H569-H575; Lim et al., Am J Physiol. 1999; 277:H2083-H2090). Briefly, animals were injected intraperitoneally with heparin (10,000 U/kg) and anesthetized with a mixture of ketamine (150 mg/kg) and xylazine (15 mg/kg). The thorax was rapidly opened and the heart excised and arrested in ice-cold saline. A short perfusion cannula was inserted into the aortic root to initiate retrograde perfusion. The hearts were perfused with Krebs-Henseleit buffer (in mmol/L: NaCl 118, KCl 4.7, CaCl2 1.8, KH2PO4 1.2, MgSO4 1.2, NaHCO3 24.0, and glucose 10.0) equilibrated with 95% O2/5% CO2 to yield a pH of 7.4. A thin cannula was pierced through the apex of the left ventricle (LV) to vent thebesian drainage. A ventricular balloon, composed of polyvinyl chloride film and connected to a polyethylene tube, was inserted into the LV through the mitral valve via an incision in the left atrium. […]
Hearts were treated first for 2 weeks with or without Se supplementation (as sodium selenite, 50 μg/kg/day), after which they were subjected to no-flow ischemia-reperfusion with 23 μM of the SOD mimetic M40403 added to the perfusate. EDP and DevP (as measures of ventricular performance) were monitored over time following restoration of perfusion. […]

[2] = tested on: isolated rat hearts (wild-type and GPx-TG); assay: Langendorff isolated heart, zero-flow ischemia followed by reperfusion (Example 1); format: ex vivo; conditions: compared with vehicle control
Protocol: Hearts were isolated from rats and perfused in the Langendorff mode as previously described (Jain et al., Am J Physiol. 2001; 280:H569-H575; Lim et al., Am J Physiol. 1999; 277:H2083-H2090). Briefly, animals were injected intraperitoneally with heparin (10,000 U/kg) and anesthetized with a mixture of ketamine (150 mg/kg) and xylazine (15 mg/kg). The thorax was rapidly opened and the heart excised and arrested in ice-cold saline. A short perfusion cannula was inserted into the aortic root to initiate retrograde perfusion. The hearts were perfused with Krebs-Henseleit buffer (in mmol/L: NaCl 118, KCl 4.7, CaCl2 1.8, KH2PO4 1.2, MgSO4 1.2, NaHCO3 24.0, and glucose 10.0) equilibrated with 95% O2/5% CO2 to yield a pH of 7.4. A thin cannula was pierced through the apex of the left ventricle (LV) to vent thebesian drainage. A ventricular balloon, composed of polyvinyl chloride film and connected to a polyethylene tube, was inserted into the LV through the mitral valve via an incision in the left atrium. The balloon was connected to a pressure transducer (Statham P23Db, Gould) for recording of LV pressures. The balloon was inflated with saline to adjust the end-diastolic pressure (EDP) to 10 mm Hg, and the balloon volume was held constant for the duration of the experiment. Hearts were paced (Grass Instruments) with platinum wires placed on the epicardial surface of the right ventricle. Coronary perfusion pressure was held constant during the duration of the experiment at 80 mm Hg. An inline ultrasonic flow probe (Transonics Systems Inc) was positioned immediately above the aortic cannula to measure coronary flow. Systolic pressure, EDP, and coronary flow were collected online by use of a commercially available data acquisition system (PowerLab ADInstruments). Developed pressure (DevP) (the difference between systolic and diastolic pressures) and EDP were used as indices of contractile and diastolic function, respectively.
During 20 minutes of baseline stabilization, all hearts were maintained at 37° C. and paced at 7 Hz. Hearts were subsequently subjected to 15 minutes of zero-flow ischemia followed by 30 minutes of reperfusion with or without a reperfusion solution containing 23 μM of the SOD mimetic M40403. The EDP was higher and DevP was lower in the wild-type (WT) rats with this treatment compared with vehicle control.

[3] = GPx-TG (glutathione peroxidase-1 transgene) with added dietary selenium, 23 μM M40403 in reperfusion solution
[4] = wild-type (WT) rats, 15 min zero-flow ischemia, 30 min reperfusion with 23 μM M40403

## [Cl-].[Cl-].[Mn+2].c1cc2nc(c1)CN[C@@H]1CCCC[C@H]1NCCN[C@@H]1CCCC[C@H]1NC2 [M40403]
[1]
  end-diastolic pressure (EDP): improved EDP (i.e., lower EDP)
[2]; [3]
  developed pressure (DevP): no change
  end-diastolic pressure (EDP): improved EDP (i.e., lower EDP)
[2]; [4]
  developed pressure (DevP): lower
  end-diastolic pressure (EDP): higher
